Assay results: patent publication US9237747B2, “Herbicidal compositions comprising 4-amino-3-chloro-5-fluoro-6-(4-chloro-2-fluoro-3-methoxyphenyl) pyridine-2-carboxylic acid or a derivative thereof and insecticides” (priority 2013, dated 2016)

What was measured:
LEFCH = assay: whole plant or invertebrate; type: in vivo, Leptochloa chinensis; conditions: Dinebra chinensis, post-emergence, 528 h, read-out: Visual Weed Control (%) - 22 DAA LEFCH Obs
Description: (§1) Seeds or nutlets of the desired test plant species were planted in a soil matrix prepared by mixing a loam or sandy loam soil (e.g., 28.6 percent silt, 18.8 percent clay, and 52.6 percent sand, with a pH of about 5.8 and an organic matter content of about 1.8 percent) and calcareous grit in an 80 to 20 ratio. The soil matrix was contained in plastic pots with a volume of 1 quart and a surface area of 83.6 square centimeters (cm^2). […] The plants were grown for 8-22 days in a greenhouse with an approximate 14 hour (h) photoperiod which was maintained at about 29° C. during the day and 26° C. during the night. Nutrients (Peters Excel® 15-5-15 5-Ca 2-Mg and iron chelate) were applied in the irrigation solution as needed and water was added on a regular basis. Supplemental lighting was provided with overhead metal halide 1000-Watt lamps as necessary. The plants were employed for testing when they reached the first through fourth true leaf stage.
(§2) Treatments consisted of the acid or esters of 4-amino-3-chloro-6-(4-chloro-2-fluoro-3-methoxyphenyl)-5-fluoropyridine-2-carboxylic acid (Compound A), each formulated as an SC (suspension concentrate), and various insecticidal components alone and in combination. Forms of compound A were applied on an acid equivalent basis.
(§3) For treatments comprised of formulated compounds, measured amounts of compounds were placed individually in 25 mL glass vials and diluted in a volume of 1.25% volume per volume (v/v) Agri-Dex® crop oil concentrate to obtain 12× stock solutions. […] Application solutions were prepared by adding an appropriate amount of each stock solution (e.g., 1 mL) and diluted to the appropriate final concentrations with the addition of […] of an aqueous mixture of 1.25% (v/v) crop oil concentrate so that the final spray solutions contained 1.25+/−0.05% (v/v) crop oil concentrate.
(§4) As required, additional water and/or 97:3 v/v acetone/DMSO was added to individual application solutions so that the final acetone and DMSO concentrations of the application solutions being compared were 8.1% and 0.25%, respectively.
(§5) All stock solutions and applications solutions were visually inspected for compound compatibility prior to application. Spray solutions were applied to the plant material with an overhead Mandel track sprayer equipped with 8002E nozzles calibrated to deliver 187 L/ha over an application area of 0.503 square meters (m^2) at a spray height of 18 to 20 inches (46 to 50 cm) above average plant canopy height. Control plants were sprayed in the same manner with the solvent blank.
(§6) The treated plants and control plants were placed in a greenhouse as described above and watered by sub-irrigation to prevent wash-off of the test compounds. After approximately 3 weeks, the condition of the test plants as compared to that of the untreated plants was determined visually and scored on a scale of 0 to 100 percent where 0 corresponds to no injury or growth inhibition and 100 corresponds to complete kill.
(§7) Colby's equation was used to determine the herbicidal effects expected from the mixtures (Colby, S. R. Calculation of the synergistic and antagonistic response of herbicide combinations. Weeds 1967, 15, 20-22.).
(§8) The following equation was used to calculate the expected activity of mixtures containing two active ingredients, A and B: Expected=A+B−(A×B/100)

ECHCO = assay: Postemergence foliar-applied weed control, direct-seeded rice (greenhouse); type: in vivo, Echinochloa colonum; conditions: 480 g ai/ha alone
Description: as §1, §2, §3, §4, §5, §6, §7, §8

CYPIR = type: in vivo, Cyperus iria; conditions: 480 g ai/ha alone
From the text: (§9) Seeds or nutlets of the desired test plant species were planted in a soil matrix prepared by mixing a loam or sandy loam soil (e.g., 28.6 percent silt, 18.8 percent clay, and 52.6 percent sand, with a pH of about 5.8 and an organic matter content of about 1.8 percent) and calcareous grit in an 80 to 20 ratio. The soil matrix was contained in plastic pots with a volume of 1 quart and a surface area of 83.6 square centimeters (cm^2). When required to ensure good germination and healthy plants, a fungicide treatment and/or other chemical or physical treatment was applied. The plants were grown for 8-22 days in a greenhouse with an approximate 14 hour (h) photoperiod which was maintained at about 29° C. during the day and 26° C. during the night. Nutrients (Peters Excel® 15-5-15 5-Ca 2-Mg and iron chelate) were applied in the irrigation solution as needed and water was added on a regular basis. Supplemental lighting was provided with overhead metal halide 1000-Watt lamps as necessary. The plants were employed for testing when they reached the first through fourth true leaf stage.
as §2
(§10) Treatment requirements were calculated based upon the rates being tested, the concentration of active ingredient or acid equivalent in the formulation, and a 12 milliliter (mL) application volume at a rate of 187 liters per hectare (L/ha).
as §3, §4, §5, §6, §7, §8

SCPJU = assay: Postemergence foliar-applied weed control, direct-seeded rice (greenhouse); type: in vivo, Schoenoplectus juncoides; conditions: 480 g ai/ha alone
From the text: as §9, with “Supplemental lighting was provided with overhead metal halide 1000-Watt lamps as necessary. The plants were employed for testing when they reached the first through fourth true leaf stage.” left out
as §10
For treatments comprised of formulated compounds, measured amounts of compounds were placed individually in 25 mL glass vials and diluted in a volume of 1.25% volume per volume (v/v) Agri-Dex® crop oil concentrate to obtain 12× stock solutions. […]

With CNC(=O)CSP(=S)(OC)OC [Dimethoate, O,O-dimethyl S-methylcarbamoylmethyl phosphorodithioate] as the molecule, how does the pest or weed control at 480 g/ha (LEFCH) read?
Its pest or weed control at 480 g/ha is 0%.

And the “Visual Weed Control (%) - 22 DAA ECHCO Obs” value (ECHCO)?
Its value is 10%.

What about the “Visual Weed Control (%) - 22 DAA CYPIR Obs” value (CYPIR) of the same molecule?
Its value is 0%.

What about the “Visual Weed Control (%) - 22 DAA SCPJU Obs” value (SCPJU) of the same molecule?
Its value is 0%.
